Test results reported in the supplement of paper PMC10307832.

How the values were obtained:
Assay in all cases: relative viability (nuclei count vs DMSO), 5 days (fraction); higher = more cells survive
[1] = compound: CN[C@@H]1C[C@H]2O[C@@](C)([C@@H]1OC)n1c3ccccc3c3c4c(c5c6ccccc6n2c5c31)C(=O)NC4 [Staurosporine] + CS(=O)(=O)N1CCN(Cc2cc3nc(-c4cccc5[nH]ncc45)nc(N4CCOCC4)c3s2)CC1 [Pictilisib] (partner 1 µM)
How it was run: (§1)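 Values are medians from duplicate plates. Each reflects relative viability, defined as the nuclei count of treated wells over that of vehicle wells. Lung cancer cell lines in 1536-well plates were pin-tool dosed one day after seeding with one drug alone or with a fixed anchor-drug dose plus five library-drug doses (not always all listed) in √10 steps, then fixed, stained and imaged at 4× after 5 days.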

Sulindac + Pemetrexed = compound: CC1=C(CC(=O)O)c2cc(F)ccc2/C1=C\c1ccc([S+](C)[O-])cc1 [Sulindac] + Nc1nc2[nH]cc(CCc3ccc(C(=O)N[C@@H](CCC(=O)O)C(=O)O)cc3)c2c(=O)[nH]1 [Pemetrexed] (partner 0.2 µM)
How it was run: as §1

Sulindac + OSI-027 = compound: CC1=C(CC(=O)O)c2cc(F)ccc2/C1=C\c1ccc([S+](C)[O-])cc1 [Sulindac] + COc1cccc2cc(-c3nc([C@H]4CC[C@H](C(=O)O)CC4)n4ncnc(N)c34)[nH]c12 [OSI-027] (partner 0.5 µM)
How it was run: as §1

Sulindac + Vorinostat = compound: CC1=C(CC(=O)O)c2cc(F)ccc2/C1=C\c1ccc([S+](C)[O-])cc1 [Sulindac] + O=C(CCCCCCC(=O)Nc1ccccc1)NO [Vorinostat] (partner 1 µM)
How it was run: as §1

| Cell Line | relative viability ([1]; first compound 0.005 µM) | relative viability ([1]; first compound 0.01581 µM) | relative viability ([1]; first compound 0.05 µM) | relative viability ([1]; first compound 0.1581 µM) | relative viability ([1]; first compound 0.5 µM) | relative viability (Sulindac + Pemetrexed; first compound 0.08 µM) | relative viability (Sulindac + Pemetrexed; first compound 0.253 µM) | relative viability (Sulindac + Pemetrexed; first compound 0.8 µM) | relative viability (Sulindac + Pemetrexed; first compound 2.53 µM) | relative viability (Sulindac + Pemetrexed; first compound 8 µM) | relative viability (Sulindac + OSI-027; first compound 0.08 µM) | relative viability (Sulindac + OSI-027; first compound 0.253 µM) | relative viability (Sulindac + OSI-027; first compound 0.8 µM) | relative viability (Sulindac + OSI-027; first compound 2.53 µM) | relative viability (Sulindac + OSI-027; first compound 8 µM) | relative viability (Sulindac + Vorinostat; first compound 0.08 µM) | relative viability (Sulindac + Vorinostat; first compound 0.253 µM) | relative viability (Sulindac + Vorinostat; first compound 0.8 µM) | relative viability (Sulindac + Vorinostat; first compound 2.53 µM) | relative viability (Sulindac + Vorinostat; first compound 8 µM) |
| --- | --- | --- | --- | --- | --- | --- | --- | --- | --- | --- | --- | --- | --- | --- | --- | --- | --- | --- | --- | --- |
| NCI-H838 | 0.19 | 0.151 | 0.172 | 0.144 | 0.126 | 0.248 | 0.255 | 0.233 | 0.24 | 0.258 | 0.382 | 0.424 | 0.367 | 0.358 | 0.388 | 0.736 | 0.777 | 0.762 | 0.726 | 0.713 |
| NCI-H1355 | 0.277 | 0.157 | 0.215 | 0.153 | 0.152 | 1.02 | 1.05 | 0.965 | 1.02 | 1.13 | 0.403 | 0.454 | – | 0.38 | 0.393 | 0.586 | 0.721 | 0.488 | 0.619 | 0.723 |
| NCI-H1395 | 0.535 | 0.315 | 0.475 | 0.366 | 0.394 | 0.931 | 1.02 | 0.828 | 0.855 | 1.12 | 0.668 | 0.72 | 0.675 | 0.58 | 0.77 | 0.662 | 0.832 | 0.641 | 0.682 | 0.959 |
| NCI-H1437 | 0.449 | 0.25 | 0.249 | 0.108 | 0.0658 | 0.375 | 0.321 | 0.326 | 0.315 | 0.413 | 1.01 | 1 | 0.767 | 0.811 | 0.96 | 0.951 | 0.872 | 0.749 | 0.837 | 0.876 |
| NCI-H1650 | 0.284 | 0.141 | 0.138 | 0.15 | 0.107 | 0.443 | 0.391 | 0.349 | 0.377 | 0.385 | 0.452 | 0.567 | – | 0.45 | 0.734 | 0.586 | 0.54 | 0.605 | 0.486 | 0.557 |
| NCI-H1651 | 0.438 | 0.334 | 0.239 | 0.097 | 0.089 | 0.766 | 0.626 | 0.581 | 0.569 | 0.613 | 0.783 | 0.698 | – | 0.801 | 0.85 | 0.623 | 0.57 | 0.486 | 0.577 | 0.593 |
| NCI-H1666 | 0.374 | 0.267 | 0.322 | 0.176 | 0.149 | 0.924 | 0.852 | 0.818 | 0.858 | 0.878 | 0.857 | 0.882 | 0.753 | 0.826 | 0.915 | 0.981 | 1.06 | 0.867 | 0.891 | 1.1 |
| NCI-H1734 | 0.317 | 0.175 | 0.174 | 0.105 | 0.0965 | 0.477 | 0.421 | 0.439 | 0.44 | 0.452 | 0.663 | 0.636 | – | 0.583 | 0.711 | 0.844 | 0.826 | 0.664 | 0.78 | 1.05 |
| NCI-H1755 | 0.135 | 0.139 | 0.155 | 0.138 | 0.154 | 0.421 | 0.448 | 0.631 | 0.444 | 0.462 | 0.776 | 0.64 | 0.661 | 0.733 | 0.763 | 0.751 | 0.772 | 0.754 | 0.77 | 0.753 |
| NCI-H1793 | 0.534 | 0.248 | 0.277 | 0.191 | – | 0.957 | 0.824 | – | 1.13 | 1.14 | 0.218 | 0.359 | 0.236 | 0.243 | 0.258 | 0.726 | 0.716 | – | 0.637 | 0.68 |
| NCI-H1915 | 0.719 | – | 0.35 | – | 0.0773 | 0.602 | 0.53 | 0.492 | 0.475 | 0.53 | 0.764 | 0.688 | – | 0.678 | 0.625 | 0.555 | 0.577 | 0.508 | 0.539 | 0.574 |
| NCI-H1944 | 0.295 | – | 0.26 | 0.231 | 0.184 | 0.701 | 0.636 | 0.412 | 0.582 | 0.722 | 0.424 | 0.43 | 0.353 | 0.421 | 0.412 | 0.604 | 0.62 | 0.506 | 0.574 | 0.571 |
| NCI-H1975 | 0.209 | 0.14 | 0.156 | 0.103 | 0.11 | 0.316 | 0.297 | 0.245 | 0.304 | 0.313 | 0.93 | 0.762 | 0.489 | 0.759 | 0.835 | 0.804 | 0.737 | 0.634 | 0.738 | 0.77 |
| NCI-H1993 | 0.869 | 0.646 | 0.66 | 0.526 | 0.565 | 0.704 | 0.575 | 0.648 | 0.638 | 0.551 | 0.513 | 0.554 | 0.495 | 0.542 | 0.581 | 0.861 | 0.668 | 0.663 | 0.779 | 0.764 |
| NCI-H2009 | 0.195 | 0.146 | 0.182 | 0.115 | 0.0836 | 1.07 | 1.02 | 1.03 | 1.01 | 1.25 | 0.732 | 0.77 | 0.582 | 0.626 | 0.731 | 0.84 | 0.84 | 0.748 | 0.649 | 0.81 |
| NCI-H2023 | 0.134 | 0.106 | 0.11 | 0.0886 | 0.0609 | 0.267 | 0.226 | 0.186 | 0.196 | 0.244 | 0.501 | 0.509 | 0.399 | 0.387 | 0.389 | 0.945 | 0.879 | 0.582 | 0.652 | 0.685 |
